Source: patent US20250051356A1, “RIFABUTIN ANALOGS FOR THE TREATMENT OF DISEASE” (priority 2021, published 2025)
In brackets after ≈: the same amount, converted by molar mass. Where two headings read alike, the source gives them in different places.

Tests used:
Format in all cases: cell-based
A. baumannii Arr-2 = assay: microbe, parasite or virus in culture; conditions: Acinetobacter baumannii, ARR2, read-out: A. baumannii MIC in RPMI + FCS, Arr-2
[1] = system: Enterococcus faecalis (strain ATCC 51575); assay: MIC against E. faecalis; conditions: Enterococcus faecalis, ATCC51575, CAMHB
M. kansasii (ATCC 12478) = assay: MIC against M. kansasii in CAMHB + ADC; conditions: Mycobacterium kansasii, ATCC12478; ATCC 12478; CAMHB + ADC (5%); read-out: MIC M. kansasii
[2] = system: A. baumannii RpoB H535C mutant; assay: microbe, parasite or virus in culture; conditions: Acinetobacter baumannii, RPOBH535CMUTANT, read-out: A. baumannii MIC in RPMI + FCS, RpoB H535C
[3] = system: M. abscessus subsp. massiliense CCUG 48898; assay: MIC against M. abscessus isolate in 7H9 + ADC; conditions: Mycobacteroides abscessus, CCUG48898
M. avium (ATCC 25291) = assay: MIC against M. avium in CAMHB + ADC; conditions: Mycobacterium avium, ATCC25291; ATCC 25291; CAMHB + ADC (5%); read-out: MIC M. avium
[4] = system: A. baumannii RpoB H535Q mutant; assay: microbe, parasite or virus in culture; conditions: Acinetobacter baumannii, RPOBH535QMUTANT, read-out: A. baumannii MIC in RPMI + FCS, RpoB H535Q
[5] = system: S. aureus (UAMS-1625 strain); assay: MIC by broth microdilution against S. aureus; conditions: Staphylococcus aureus, read-out: MIC S. aureus
[6] = system: A. baumannii RpoB H535L mutant; assay: microbe, parasite or virus in culture; conditions: Acinetobacter baumannii, RPOBH535LMUTANT, read-out: A. baumannii MIC in RPMI + FCS, RpoB H535L
[7] = system: A. baumannii (HUMC1 strain); assay: MIC by broth microdilution against A. baumannii in RPMI + 10% FCS; conditions: Acinetobacter baumannii; HUMC1 strain; RPMI + 10% FCS; read-out: MIC A. baumannii
M. xenopi (ATCC 19250) = assay: MIC against M. xenopi in CAMHB + ADC; conditions: Mycobacterium xenopi, ATCC19250; ATCC 19250; CAMHB + ADC (5%); read-out: MIC M. xenopi
M. abscessus strains = assay: MIC over the five tested M. abscessus strains in 7H9 + ADC; conditions: Mycobacteroides abscessus, span over five isolates, read-out: MIC values against the tested M. abscessus strains
[8] = system: A. baumannii wild type (WT); assay: MIC against A. baumannii isolate in RPMI + FCS
[9] = system: Enterococcus faecium (strain NCTC 12204); assay: MIC against E. faecium; conditions: Enterococcus faecium, NCTC12204; strain NCTC 12204; CAMHB; read-out: MIC E. faecium
[10] = system: A. baumannii with Arr-mediated and RpoB mutation-mediated resistance
[11] = system: Hemophilus influenzae (strain ATCC 49247); assay: MIC against H. influenzae; conditions: Haemophilus influenzae, ATCC49247, Hemophilus test medium broth
[12] = system: M. abscessus subsp. abscessus ATCC 19977; assay: MIC against M. abscessus in Middlebrook 7H9 + ADC; conditions: Mycobacteroides abscessus, ATCC19977
[13] = system: M. abscessus subsp. abscessus CCUG 71382; assay: MIC against M. abscessus isolate in 7H9 + ADC; conditions: Mycobacteroides abscessus, CCUG71382
[14] = system: M. abscessus subsp. abscessus CCUG 71636; assay: MIC against M. abscessus isolate in 7H9 + ADC; conditions: Mycobacteroides abscessus, CCUG71636
[15] = system: M. abscessus subsp. bolletii CCUG 50184; assay: MIC against M. abscessus isolate in 7H9 + ADC; conditions: Mycobacteroides abscessus, CCUG50184
[16] = system: Staphylococcus epidermidis (strain ATCC 12228); assay: MIC against S. epidermidis; conditions: Staphylococcus epidermidis, ATCC12228, CAMHB
[17] = system: M. abscessus subsp. abscessus CCUG 71382; assay: MIC against M. abscessus isolate in CAMHB; conditions: Mycobacteroides abscessus, CCUG71382
[18] = system: M. abscessus subsp. massiliense CCUG 48898; assay: MIC against M. abscessus isolate in CAMHB; conditions: Mycobacteroides abscessus, CCUG48898
[19] = system: M. abscessus subsp. bolletii CCUG 50184; assay: MIC against M. abscessus isolate in CAMHB; conditions: Mycobacteroides abscessus, CCUG50184
[20] = system: M. abscessus subsp. abscessus ATCC 19977; assay: MIC against M. abscessus isolate in CAMHB; conditions: Mycobacteroides abscessus, ATCC19977
[21] = system: M. abscessus subsp. abscessus CCUG 71636; assay: MIC against M. abscessus isolate in CAMHB; conditions: Mycobacteroides abscessus, CCUG71636, read-out: M. abscessus MIC in CAMHB, abscessus CCUG 71636
[22] = ATCC 19977, 7H9 + ADC, read-out: MIC M. abscessus
[23] = read-out: M. abscessus MIC in 7H9 + ADC, abscessus ATCC 19977

Row | SMILES | MIC (A. baumannii Arr-2) | MIC [1] | MIC (M. kansasii (ATCC 12478)) | MIC [2] | MIC [3] | MIC (M. avium (ATCC 25291)) | MIC [4] | MIC [5] | MIC [6] | MIC [7] | MIC (M. xenopi (ATCC 19250)) | MIC (M. abscessus strains) | MIC [9] | MIC [11] | MIC [12, 22] | MIC [12, 23] | MIC [13] | MIC [14] | MIC [15] | MIC [16] | other results
1 | CO[C@H]1/C=C/O[C@@]2(C)Oc3c(C)c(O)c4c(c3C2=O)C2=NC3(CCN(CC(C)C)CC3)NC2=C(NC(=O)/C(C)=C\C=C\[C@H](C)[C@H](O)[C@@H](C)[C@@H](O)[C@@H](C)[C@H](OC(=O)CC(=O)OCC2CCCN(C)C2)[C@@H]1C)C4=O (stereo partly shown) [Compound 3] | ≤ 0.002 µg/mL | 2000 µg/mL (≈ 2000 µM) | 0.125 µg/mL | 0.008 µg/mL | 2 µg/mL | 1 µg/mL | ≤ 0.002 µg/mL | 0.06 µg/mL (≈ 0.0599 µM) | 0.25 µg/mL | ≤ 0.002 µg/mL | 1 µg/mL | 0.5 to 2 µg/mL | 1000 µg/mL (≈ 998 µM) | 1000 µg/mL (≈ 998 µM) | 1 µg/mL | 1 µg/mL | 1 µg/mL | 0.5 µg/mL | 0.5 µg/mL | ≤ 2 µg/mL | antibacterial activity against A. baumannii wild type strain [8]: retained strong antibacterial activity; MIC ([8]; Acinetobacter baumannii, read-out: A. baumannii MIC in RPMI + FCS, WT): ≤ 0.002 µg/mL; activity against A. baumannii with Arr- and RpoB mutation-mediated resistance [10]: overcame antibiotic resistance mechanisms
2 | CO[C@H]1/C=C/O[C@@]2(C)Oc3c(C)c(O)c4c(O)c(c(/C=N/N5CCN(C)CC5)c(O)c4c3C2=O)NC(=O)/C(C)=C\C=C\[C@H](C)[C@H](O)[C@@H](C)[C@@H](O)[C@@H](C)[C@H](OC(C)=O)[C@@H]1C [Rifampicin, rifampicin] | > 32 µg/mL | 1000 µg/mL (≈ 1220 µM) | – | > 32 µg/mL | 32 µg/mL | – | > 32 µg/mL | – | > 32 µg/mL | – | – | > 32 µg/mL | 500 µg/mL (≈ 608 µM) | 250 µg/mL (≈ 304 µM) | – | > 32 µg/mL | > 32 µg/mL | > 32 µg/mL | > 32 µg/mL | ≤ 2 µg/mL | MIC ([8]; Acinetobacter baumannii; read-out: A. baumannii MIC in RPMI + FCS, WT): 32 µg/mL
3 | CO[C@H]1/C=C/O[C@@]2(C)Oc3c(C)c(O)c4c(c3C2=O)C2=NC3(CCN(CC(C)C)CC3)NC2=C(NC(=O)/C(C)=C\C=C\[C@H](C)[C@H](O)[C@@H](C)[C@@H](O)[C@@H](C)[C@H](OC(=O)CC(=O)NC2CCN(Cc3ccccc3)CC2)[C@@H]1C)C4=O [Compound 90] | – | – | 0.008 µg/mL | – | – | 0.125 µg/mL | – | 0.125 µg/mL (≈ 0.118 µM) | – | 0.016 µg/mL | 0.25 µg/mL | – | – | – | 0.25 µg/mL | – | – | – | – | – | MIC [17]: 1 µg/mL (≈ 0.94 µM); MIC [18]: 1 µg/mL (≈ 0.94 µM); MIC [19]: 0.5 µg/mL (≈ 0.47 µM); MIC [20]: 1 µg/mL (≈ 0.94 µM); MIC [21]: 0.125 µg/mL (≈ 0.118 µM)
4 | CO[C@H]1/C=C/O[C@@]2(C)Oc3c(C)c(O)c4c(c3C2=O)C2=NC3(CCN(CC(C)C)CC3)NC2=C(NC(=O)/C(C)=C\C=C\[C@H](C)[C@H](O)[C@@H](C)[C@@H](O)[C@@H](C)[C@H](OC(=O)CC(=O)N2CCCN(Cc3ccc(F)cc3)CC2)[C@@H]1C)C4=O [Compound 127] | – | – | 0.008 µg/mL | – | – | 0.125 µg/mL | – | 0.25 µg/mL (≈ 0.231 µM) | – | 0.06 µg/mL | 0.03 µg/mL | – | – | – | 0.125 µg/mL | – | – | – | – | – | –
